Tests used:
Hsp70 = molecular target: T1, Hsp70 (Homo sapiens, UniProt P0DMV8); assay: Measurement of affinity between compounds and Hsp70 (SPR, BIACORE T100); format: binding
T1 construct: purchased Enzo Life Sciences ADI-ESP-550-D
Experimental: Instrument for measuring the affinity between Example compounds and Hsp70 is BIACORE T100 Biomolecular Interaction Analysis (GE, USA), and the positive control drug is VER-155008 that is well-recognized as Hsp70 inhibitor now, and, on the basis of the measured results, according to binding characteristics between the compounds and protein, the binding constant (equilibrium dissociation constant KD) between drugs and protein is calculated by selecting steady state model with the formula: Conc*Rmax/[conc+KD]+offset.
1. Instrument: BIACORE T100 Biomolecular Interaction Analysis (GE, USA)
2. Reagents: PBS Buffer (×10), P20, CM5 chip (GE, USA), Hsp70 (human, ADI-ESP-550-D), manufactured by Enzo Life Sciences.
30 mM mother liquor of the compound was formulated with DMSO, which was diluted to 2 mM application solution with DMSO before use. 5 μl of the application solution was taken and diluted with 95 μl 1.05×PBS to 100 μM, and then diluted in turn with PBS containing 5% DMSO to […]. PBS containing 5% DMSO was used as solvent control.
Hsp70 protein was diluted with 10 mmol/L sodium acetate buffer solution (pH 5.0) to 30 μg/ml, and coupled directly on a hydrophilic carboxylmethyl dextran matrix sensor chip M5 through normalized primary amine coupling reaction, RU=11209, and then the chip was balanced for 1-2 h with PBS Buffer at […].
At a flow rate of […], with PBS containing 5% DMSO as mobile phase, at 25° C., the compound was introduced in the sequence of 0.003, 0.01, 0.03, 0.1, 0.3, 1, 3 and 10 μM, with binding time of 90 seconds, and dissociation time of 120 seconds.
According to binding characteristics between the compounds and protein, the binding constant (equilibrium dissociation constant KD) between drugs and protein was calculated by selecting steady state model with the formula: Conc*Rmax/[conc+KD]+offset.

BT/Lap^R1.0 = assay: Antitumor bioactivity evaluation, breast cancer cells (ATPlite); format: cell-based, human; settings: Homo sapiens; test sample 5 μM, 72 hours; read-out: Inhibitory Rate % BT/Lap^R1.0
Experimental: (§1) Antitumor bioactivity evaluation of the compounds of Examples according to the method described below
(§2) Cells plating: a 100 mm culture dish with overgrown adherent cells was digested with 1 ml 0.25% trypsin (GIBCO) at 37° C. for 5 min, and the reaction was terminated with 2 ml culture medium (containing 10% FBS, GIBCO). The cells were scattered and collected, after counting, diluted to 1×10^5 cells/ml, and seeded into a 96-well plate at 50 μl/well, 5000 cells/well, excluding the peripheral circle of wells in which no cell was added, but PBS was added, 60 wells in total, and then incubated at 37° C. for 24 hours for adhering.
(§3) Addition of the compound and lapatinib: the test sample was diluted to a final concentration of 5 μM, and the culture medium with the corresponding compound solvent concentration was filled in the control well, the compound solvent concentration was kept consistent in each well, 5 parellel wells were set for each concentration, 25 μl each well, 25 μl culture medium (in combined group, 25 μl lapatinib was added till a final concentration of 1 μM) supplemented, followed by incubation at 37° C. for 72 hours.
(§4) Test after incubation at 37° C. for 72 hours: 50 μL of ATPlite kit substrate solution was added in each well, and vibrated for 3 min, followed by placing aside in darkness for 10 min, and then supernatant 100 μl/well was taken and placed on aluminescence test plate; the luminescence test plate that has been fully incubated was placed in a luminescence test instrument, to read luminescence value.
(§5) 1. Cell survival rate (%)=Experimental group RLU/control group RLU×100%. The experimental data were subjected to data analysis and processing by utilizing GraphPad software.

SK-BR3 = assay: as above; format: cell-based; settings: Homo sapiens, SK-BR-3; test sample 5 μM, 72 hours; read-out: Inhibitory Rate % SK-BR3
Experimental: as §1, §2, §3, §4, §5

SK/Lap^R1.0 = assay: as above; format: cell-based; settings: Homo sapiens; test sample 5 μM, 72 hours; read-out: Inhibitory Rate % SKLap^R1.0
Experimental: as §1, §2, §3, §4, §5

MDA-MB-361 = assay: as above; format: cell-based; settings: Homo sapiens, test sample 5 μM, 72 hours, read-out: Inhibitory Rate % MDA-MB-361
Experimental: as §1, §2, §3, §4, §5

BT474 = assay: as above; format: cell-based; settings: Homo sapiens, BT-474; test sample 5 μM, 72 hours; read-out: Inhibitory Rate % BT474
Experimental: as §1, §2, §3, §4, §5

MDA-MB-453 = assay: as above; format: cell-based; settings: Homo sapiens, test sample 5 μM, 72 hours, read-out: Inhibitory Rate % MDA-MB-453
Experimental: as §1, §2, §3, §4, §5

T1 sequence (P0DMV8 whole entry): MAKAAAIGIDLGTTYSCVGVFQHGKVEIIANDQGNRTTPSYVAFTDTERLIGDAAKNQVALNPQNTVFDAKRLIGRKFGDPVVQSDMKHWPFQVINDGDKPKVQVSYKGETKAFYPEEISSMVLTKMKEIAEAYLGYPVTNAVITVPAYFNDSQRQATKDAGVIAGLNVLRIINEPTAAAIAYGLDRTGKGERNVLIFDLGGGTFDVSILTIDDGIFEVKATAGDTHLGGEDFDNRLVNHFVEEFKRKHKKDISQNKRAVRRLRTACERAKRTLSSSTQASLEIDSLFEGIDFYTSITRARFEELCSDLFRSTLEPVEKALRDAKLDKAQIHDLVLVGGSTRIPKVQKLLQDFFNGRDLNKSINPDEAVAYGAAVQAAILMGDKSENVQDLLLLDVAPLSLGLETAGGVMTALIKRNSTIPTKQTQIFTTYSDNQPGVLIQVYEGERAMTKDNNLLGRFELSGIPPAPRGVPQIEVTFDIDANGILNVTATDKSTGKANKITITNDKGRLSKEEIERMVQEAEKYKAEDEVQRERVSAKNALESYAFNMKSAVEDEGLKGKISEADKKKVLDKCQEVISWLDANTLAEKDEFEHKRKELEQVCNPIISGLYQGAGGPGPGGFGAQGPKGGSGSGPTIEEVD

Compound | KD compared with positive control drug VER-155008 (Hsp70) | Kd (Hsp70; steady state model, 25° C., read-out: KD (binding constant between the compounds and Hsp70)) [nM] | inhibition at 5 µM (BT/Lap^R1.0) [%] | inhibition at 5 µM (SK-BR3) [%] | inhibition at 5 µM (SK/Lap^R1.0) [%] | inhibition at 5 µM (MDA-MB-361) [%] | inhibition at 5 µM (BT474) [%] | inhibition at 5 µM (MDA-MB-453) [%]
Fc1ccc(CNC2CCN(Cc3cnc(Cl)s3)CC2)cc1 [Example 12, N-(4-fluorobenzyl)-N-{1-[(2-chlorothiazol-5-yl)methyl]piperidin-4-yl}amine] | KD values equivalent to that of the positive control drug VER-155008 | 200 | 9.1 | 22.4 | 4.4 | 4.8 | 5.4 | 0.1
COc1nccc(N2CCC(N(C)Cc3cc(Cl)ccc3Cl)CC2)n1 [Example 52, N-methyl-N-(2,5-dichlorobenzyl)-N-[1-(2-methoxypyrimidin-4-yl)piperidin-4-yl]amine] |  |  | 68.1 | 87.6 | 80.7 | 64.1 | 74.2 | 68.7
COc1nccc(N2CCC(N(C)Cc3ccc(Cl)c(Cl)c3)CC2)n1 [Example 53, N-methyl-N-(3,4-dichlorobenzyl)-N-[1-(2-methoxypyrimidin-4-yl)piperidin-4-yl]amine] |  |  | 35.8 | 27.7 | 16.8 | 41.7 | 52.9 | 60.2
COc1nccc(N2CCC(N(C)Cc3c(F)cccc3Cl)CC2)n1 [Example 54, N-methyl-N-(2-fluoro-6-chlorobenzyl)-N-[1-(2-methoxypyrimidin-4-yl)piperidin-4-yl]amine] |  |  | 62.4 | 27.7 | 17.2 | 48.3 | 65.4 | 64.7
COc1nccc(N2CCC(N(C)Cc3cccc(Cl)c3)CC2)n1 [Example 55, N-methyl-N-(3-chlorobenzyl)-N-[1-(2-methoxypyrimidin-4-yl)piperidin-4-yl]amine] |  |  | 26.2 | 18.5 | 15.1 | 23.2 | 36.2 | 56.7
COc1nccc(N2CCC(N(C)Cc3cccc(F)c3)CC2)n1 [Example 56, N-methyl-N-(3-fluorobenzyl)-N-[1-(2-methoxypyrimidin-4-yl)piperidin-4-yl]amine] |  |  | 10.5 | 9.2 | 3.9 | 8.5 | 9.9 | 27.9
COc1cc(N2CCC(N(C)Cc3ccccc3Cl)CC2)ncn1 [Example 58, N-methyl-N-(2-chlorobenzyl)-N-[1-(6-methoxypyrimidin-4-yl)piperidin-4-yl]amine] |  |  | 18.9 | 13.5 | 29 | 20.3 | 27.7 | 46.7
COc1cc(N2CCC(N(C)Cc3ccc(C)cc3)CC2)ncn1 [Example 59, N-methyl-N-(4-methylbenzyl)-N-[1-(6-methoxypyrimidin-4-yl)piperidin-4-yl]amine] |  |  | 8 | 20.6 | 22 | 10.6 | 5 | 13.4
COc1cc(N2CCC(N(C)Cc3c(Cl)cccc3Cl)CC2)ncn1 [Example 60, N-methyl-N-(2,6-dichlorobenzyl)-N-[1-(6-methoxypyrimidin-4-yl)piperidin-4-yl]amine] |  |  | 52.5 | 22.8 | 19.2 | 30.8 | 53.6 | 65.1
COc1cc(N2CCC(N(C)Cc3ccc(Cl)c(Cl)c3)CC2)ncn1 [Example 61, N-methyl-N-(3,4-dichlorobenzyl)-N-[1-(6-methoxypyrimidin-4-yl)piperidin-4-yl]amine] |  |  | 9.2 | 16.1 | 28 | 6.5 | 9.8 | 12.7
COc1cc(N2CCC(N(C)Cc3ccc(F)cc3)CC2)ncn1 [Example 62, N-methyl-N-(4-fluorobenzyl)-N-[1-(6-methoxypyrimidin-4-yl)piperidin-4-yl]amine] |  |  | 8.1 | 7.6 | 5.7 | 4.9 | 7.8 | 5
COc1cc(N2CCC(N(C)Cc3cccc(Cl)c3)CC2)ncn1 [Example 63, N-methyl-N-(3-chlorobenzyl)-N-[1-(6-methoxypyrimidin-4-yl)piperidin-4-yl]amine] |  |  | 9.4 | 12.6 | 24.8 | 25.6 | 11.9 | 23.8
COc1cc(N2CCC(N(C)Cc3c(F)cccc3Cl)CC2)ncn1 [Example 64, N-methyl-N-(2-fluoro-6-chlorobenzyl)-N-[1-(6-methoxypyrimidin-4-yl)piperidin-4-yl] amine] |  |  | 48.5 | 15.5 | 16.6 | 39.6 | 45.9 | 59.4
COc1cc(N2CCC(N(C)Cc3ccccc3C#N)CC2)ncn1 [Example 65, N-methyl-N-(2-cyanobenzyl)-N-[1-(6-methoxypyrimidin-4-yl)piperidin-4-yl]amine] |  |  | 62.2 | 23.3 | 16.8 | 42.7 | 65.8 | 66.1
COc1cc(N2CCC(N(C)Cc3ccc(C#N)cc3)CC2)ncn1 [Example 66, N-methyl-N-(p-cyanobenzyl)-N-[1-(6-methoxypyrimidin-4-yl)piperidin-4-yl]amine] |  |  | 16.9 | 17.3 | 8.8 | 20.3 | 25.1 | 46.1
COc1cc(N2CCC(N(C)Cc3cc(Cl)ccc3Cl)CC2)ncn1 [Example 67, N-methyl-N-(2,5-dichlorobenzyl)-N-[1-(6-methoxypyrimidin-4-yl)piperidin-4-yl]amine] |  |  | 32.1 | 29.2 | 9.4 | 27.6 | 45.9 | 61.1
COc1cc(N2CCC(N(C)Cc3cccc(F)c3)CC2)ncn1 [Example 68, N-methyl-N-(3-fluorobenzyl)-N-[1-(6-methoxypyrimidin-4-yl)piperidin-4-yl]amine] |  |  | 5.6 | 5.2 | 30.1 | 8.4 | 5.4 | 9.4
CS(=O)(=O)CCNCc1ccc(-c2ccc3ncnc(Nc4ccc(OCc5cccc(F)c5)c(Cl)c4)c3c2)o1 [lapatinib, reference compound] |  |  | 18 | 79 | 10.4 | 40.2 | 75.6 | 42.6

From US10023565B2, “N,N′ substituted piperidinamine compounds, and preparation method and usage thereof” (Institute of Pharmacology and Toxicology Academy of …, priority 2013, dated 2018)
